Results as given in US10357492B2, “Levosimendan for use in the treatment of motor neuron diseases (E.G. ALS)” (Orion Corporation, priority 2014, dated 2019).

Key:
[1] = tested on: Antibody Induced Myasthenia Gravis Model in Female Lewis Rats; assay: treadmill exercise capacity test in antibody induced myasthenia gravis model; assay type: in vivo; details: 2 h post-dosing of repeated oral dosage on day 3 (72 h after antibody); levosimendan 0.25 mg/kg, active metabolite (II) 0.025 mg/kg; FIG. 2
Description: (§1) The effects of levosimendan and its active metabolite (II) on skeletal muscle weakness were studied in an experimental model of Myasthenia Gravis (Russell A J et al., Nat Med 18 (3), 2012, 452-5). Myasthenia Gravis was induced in female Lewis rats by injecting 500 μg/kg of nAChRα1/3/5 antibody (SC-58604, Santa Cruz Biotechnology) intraperitoneally on day 0. Animals with 40-70% drop in muscle strength from baseline at 48 h after administration of the antibody were randomized into treatment groups: 1) Vehicle control (n=6) (0.5% Methocel 5 ml/kg orally), 2) Levosimendan (n=6) (0.25 mg/kg orally), 3) Active metabolite (II) (n=6) (0.025 mg/kg orally).
Exercise capacity measurements were performed with airtight treadmill (Accupacer treadmill, Accuscan Instruments, USA) connected to a respiratory gas analysing system. Rehearsals and exercise capacity measurements were started with familiarising the rats with the treadmill chambers for 15 minutes (restmill). The exercise program consisted of 15 min running at 10 m/min until the rat was incapable to keep up the speed despite of electric shock motivation. Rats were trained for the test three times one day before and twice on the day of antibody injection. Effects of different drug treatments on treadmill responses were measured 1 h and 2 h after oral treatment on day 3 (72 h after induction of Myasthenia Gravis).

[2] = tested on: Antibody Induced Myasthenia Gravis Model in Female Lewis Rats; assay: accelerated rotating rod test (Rotarod) in antibody induced myasthenia gravis model; assay type: in vivo; details: single oral dosage on day 2 (48 h after antibody); levosimendan 0.25 mg/kg, active metabolite (II) 0.025 mg/kg; measured 0.5 h, 1 h, 2 h after treatment; FIG. 1
Description: as §1
Coordination, balance, and motor skill acquisition were tested using an accelerated rotating rod test (Rotarod, Ugo Basile, Comerio, Italy). Rats were placed on a rod that accelerated smoothly from 4 to 40 rpm over a period of 5 min. The length of time that each animal was able to stay on the rod was recorded. Three consecutive measurements were performed. Rats were trained for the test four times one day before and twice on the day of antibody injection. Effects of different drug treatments on Rotarod response were measured 0.5 h, 1 h, and 2 h after oral treatment on day 2, i.e. 48 hours after the induction of Myasthenia Gravis.

[3] = pharmacokinetics (half-life); details: rat, in vivo; "in rats" printed for the active metabolite (II) only; read-out: t½ (converted)

Structure (SMILES): CC1CC(=O)NN=C1c1ccc(NN=C(C#N)C#N)cc1 (single isomer, unassigned) [Levosimendan, [[4-(1,4,5,6-tetrahydro-4-methyl-6-oxo-3-pyridazinyl)phenyl]hydrazono]propanedinitrile]
- effect on skeletal muscle function in treadmill test (exercise duration) [1]: positive effect
- effect on muscle function in Rotarod test (time able to stay on the rotating rod) [2]: acute and transient improvement in muscle function
- half-life [3]: 0.7 h

Structure (SMILES): CC(=O)Nc1ccc(C2=NNC(=O)C[C@H]2C)cc1 [active metabolite (II), (R)—N-[4-(1,4,5,6-tetrahydro-4-methyl-6-oxo-3-pyridazinyl)phenyl]-acetamide]
- effect on skeletal muscle function in treadmill test (exercise duration) [1]: positive effect
- effect on muscle function in Rotarod test (time able to stay on the rotating rod) [2]: acute and transient improvement in muscle function
- half-life [3]: 5 h
